Source: publication PMC2911597, “Three-Dimensional Structure of TspO by Electron Cryomicroscopy of Helical Crystals” (Structure(London, England:1993), 2010)
Like-named read-outs stand apart in the source and are kept apart here. Each block holds one molecule with its values, some of them ahead of it.

Legend:
[1] = target: T1, TspO (tryptophan-rich sensory protein) (Cereibacter sphaeroides, UniProt Q9RFC8); experiment: intrinsic tryptophan fluorescence quenching titration, purified protein in DDM; type: binding
T1 construct: C-terminal His6 tag, expressed in E. coli BL21(DE3), purified in DDM
T1 sequence (Q9RFC8 1-158): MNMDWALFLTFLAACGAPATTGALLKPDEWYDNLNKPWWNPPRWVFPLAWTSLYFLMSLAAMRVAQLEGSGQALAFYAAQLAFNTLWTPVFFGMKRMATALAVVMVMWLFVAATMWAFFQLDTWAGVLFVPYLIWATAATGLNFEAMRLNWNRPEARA

native gel or EMSA = target: the molecule itself; experiment: native gel or EMSA

Molecule: C=CC1=C(C)c2cc3[nH]c(cc4nc(cc5[nH]c(cc1n2)c(C)c5CCC(=O)O)C(CCC(=O)O)=C4C)c(C)c3C=C [PPIX, protoporphyrin IX]
- Kd [1]: 8.6 ± 0.6 µM

- Kd ([1]; read-out: Kd): 17.9 ± 1.7 µM
Molecule: CC1=C(CCC(=O)O)c2cc3[nH]c(cc4nc(cc5[nH]c(cc1n2)c(CCC(=O)O)c5C)C(C)=C4CCC(=O)O)c(CCC(=O)O)c3C [cPPIII, coproporphyrin III]

Molecule: C=CC1=C(C)C2=Cc3c(C=C)c(C)c4[n]3[Fe]([Cl])[n]3c(c(C)c(CCC(=O)O)c3=CC3=NC(=C4)C(C)=C3CCC(=O)O)=CC1=N2 [hemin]
- Kd [1]: 10 ± 2.5 µM

B1: tryptophan-rich sensory protein (TspO) from Rhodobacter sphaeroides (natural protein, UniProt Q9RFC8 1-158, looked up)
chain: T1 sequence (Q9RFC8 1-158)
notes: also called rsTspO; TspO-His6; source: E. coli BL21(DE3), pET29, purified in DDM (NiNTA-agarose, gel filtration)
- stoichiometry N (native gel or EMSA): 2
